Data reported in ChEMBL document CHEMBL1795319, “Design, synthesis and antifungal evaluation of 1-(2-(2,4-difluorophenyl)-2-hydroxy-3-(1H-1,2,4-triazol-1-yl)propyl)-1H-1,2,4-triazol-5(4H)-one” (2011).
≈ marks a conversion by molar mass, not a printed value.

Assays:
Format in all cases: functional
Candida albicans [1] = test: Antifungal activity against Candida albicans SC5314 after 24 hrs by micro-broth dilution method; settings: SC5314, 24 h
Candida albicans [2] = test: Antifungal activity against Candida albicans Y0109 after 24 hrs by micro-broth dilution method; settings: Y0109, 24 h
Candida tropicalis = test: Antifungal activity against Candida tropicalis by micro-broth dilution method
Candida parapsilosis = test: Antifungal activity against Candida parapsilosis by micro-broth dilution method; settings: Lodderomyces parapsilosis
Kluyveromyces marxianus = test: Antifungal activity against Candida kefyr by micro-broth dilution method
Cryptococcus neoformans = test: Antifungal activity against Cryptococcus neoformans BLS108 after 72 hrs by micro-broth dilution method; settings: BLS108, 72 h
Trichophyton rubrum = test: Antifungal activity against Trichophyton rubrum by micro-broth dilution method
Aspergillus fumigatus = test: Antifungal activity against Aspergillus fumigatus by broth microdilution method

| MIC80 (Candida albicans [1]) [µg/mL] | MIC80 (Candida albicans [2]) [µg/mL] | MIC80 (Candida tropicalis) [µg/mL] | MIC80 (Candida parapsilosis) [µg/mL] | MIC80 (Kluyveromyces marxianus) [µg/mL] | MIC80 (Cryptococcus neoformans) [µg/mL] | MIC80 (Trichophyton rubrum) [µg/mL] | MIC80 (Aspergillus fumigatus) [µg/mL] | SMILES |
| --- | --- | --- | --- | --- | --- | --- | --- | --- |
| 1 (≈ 2.51 µM) | 0.25 (≈ 0.628 µM) | 0.25 (≈ 0.628 µM) | 4 (≈ 10 µM) | 0.25 (≈ 0.628 µM) | 64 (≈ 161 µM) | 16 (≈ 40.2 µM) | > 64 | O=c1n(-c2ccccc2)cnn1CC(O)(Cn1cncn1)c1ccc(F)cc1F (racemic) |
| 1 (≈ 2.4 µM) | 1 (≈ 2.4 µM) | 0.25 (≈ 0.6 µM) | 4 (≈ 9.61 µM) | 0.25 (≈ 0.6 µM) | > 64 | 64 (≈ 154 µM) | > 64 | O=c1n(-c2ccc(F)cc2)cnn1CC(O)(Cn1cncn1)c1ccc(F)cc1F (racemic) |
| 0.0625 (≈ 0.144 µM) | 0.0625 (≈ 0.144 µM) | 0.0625 (≈ 0.144 µM) | 1 (≈ 2.31 µM) | 0.0156 (≈ 0.036 µM) | 64 (≈ 148 µM) | 16 (≈ 37 µM) | > 64 | O=c1n(-c2ccc(Cl)cc2)cnn1CC(O)(Cn1cncn1)c1ccc(F)cc1F (racemic) |
| 1 (≈ 2.31 µM) | 1 (≈ 2.31 µM) | 1 (≈ 2.31 µM) | 16 (≈ 37 µM) | 0.25 (≈ 0.578 µM) | 64 (≈ 148 µM) | 64 (≈ 148 µM) | > 64 | O=c1n(-c2ccccc2Cl)cnn1CC(O)(Cn1cncn1)c1ccc(F)cc1F (racemic) |
| 1 (≈ 2.1 µM) | 0.156 (≈ 0.327 µM) | 0.0625 (≈ 0.131 µM) | 1 (≈ 2.1 µM) | 0.0156 (≈ 0.0327 µM) | 16 (≈ 33.5 µM) | 16 (≈ 33.5 µM) | > 64 | O=c1n(-c2ccc(Br)cc2)cnn1CC(O)(Cn1cncn1)c1ccc(F)cc1F (racemic) |
| 0.25 (≈ 0.606 µM) | 1 (≈ 2.42 µM) | 0.25 (≈ 0.606 µM) | 4 (≈ 9.7 µM) | 0.25 (≈ 0.606 µM) | 64 (≈ 155 µM) | 64 (≈ 155 µM) | > 64 | Cc1ccc(-n2cnn(CC(O)(Cn3cncn3)c3ccc(F)cc3F)c2=O)cc1 (racemic) |
| 1 (≈ 2.33 µM) | 0.0625 (≈ 0.146 µM) | 0.0625 (≈ 0.146 µM) | 1 (≈ 2.33 µM) | 0.0625 (≈ 0.146 µM) | 16 (≈ 37.3 µM) | 16 (≈ 37.3 µM) | > 64 | COc1ccc(-n2cnn(CC(O)(Cn3cncn3)c3ccc(F)cc3F)c2=O)cc1 (racemic) |
| 1 (≈ 2.36 µM) | 1 (≈ 2.36 µM) | 4 (≈ 9.45 µM) | 1 (≈ 2.36 µM) | 16 (≈ 37.8 µM) | > 64 | 64 (≈ 151 µM) | > 64 | N#Cc1ccc(-n2cnn(CC(O)(Cn3cncn3)c3ccc(F)cc3F)c2=O)cc1 (racemic) |
| 0.00024 (≈ 0.000567 µM) | 0.00024 (≈ 0.000567 µM) | 0.00024 (≈ 0.000567 µM) | 0.00024 (≈ 0.000567 µM) | 0.00024 (≈ 0.000567 µM) | 0.25 (≈ 0.59 µM) | 4 (≈ 9.45 µM) | > 64 | N#Cc1cccc(-n2cnn(CC(O)(Cn3cncn3)c3ccc(F)cc3F)c2=O)c1 (racemic) |
| 4 (≈ 8.56 µM) | 16 (≈ 34.2 µM) | 64 (≈ 137 µM) | 16 (≈ 34.2 µM) | 16 (≈ 34.2 µM) | 0.25 (≈ 0.535 µM) | > 64 | > 64 | O=c1n(-c2ccc(Cl)c(Cl)c2)cnn1CC(O)(Cn1cncn1)c1ccc(F)cc1F (racemic) |
| 1 (≈ 2.26 µM) | 1 (≈ 2.26 µM) | 0.25 (≈ 0.564 µM) | 16 (≈ 36.1 µM) | 0.25 (≈ 0.564 µM) | 64 (≈ 144 µM) | 16 (≈ 36.1 µM) | > 64 | O=c1n(-c2ccc([N+](=O)[O-])cc2)cnn1CC(O)(Cn1cncn1)c1ccc(F)cc1F (racemic) |
| 0.25 (≈ 0.617 µM) | 1 (≈ 2.47 µM) | 1 (≈ 2.47 µM) | 0.25 (≈ 0.617 µM) | 1 (≈ 2.47 µM) | 64 (≈ 158 µM) | 16 (≈ 39.5 µM) | > 64 | O=c1n(-c2nccs2)cnn1CC(O)(Cn1cncn1)c1ccc(F)cc1F (racemic) |
| 16 (≈ 29.1 µM) | 16 (≈ 29.1 µM) | 16 (≈ 29.1 µM) | 64 (≈ 116 µM) | 4 (≈ 7.27 µM) | 64 (≈ 116 µM) | 64 (≈ 116 µM) | > 64 | O=c1n(-c2nc(-c3ccc(Cl)cc3Cl)cs2)cnn1CC(O)(Cn1cncn1)c1ccc(F)cc1F (racemic) |
| 4 (≈ 9.68 µM) | 4 (≈ 9.68 µM) | 64 (≈ 155 µM) | 4 (≈ 9.68 µM) | 4 (≈ 9.68 µM) | 16 (≈ 38.7 µM) | 16 (≈ 38.7 µM) | > 64 | Cc1ccc(-n2cnn(CC(O)(Cn3cncn3)c3ccc(F)cc3F)c2=O)nc1 (racemic) |
| 0.00024 (≈ 0.000581 µM) | 0.00024 (≈ 0.000581 µM) | 0.00024 (≈ 0.000581 µM) | 0.00024 (≈ 0.000581 µM) | 0.0625 (≈ 0.151 µM) | 0.00024 (≈ 0.000581 µM) | 64 (≈ 155 µM) | > 64 | Cc1ccnc(-n2cnn(CC(O)(Cn3cncn3)c3ccc(F)cc3F)c2=O)c1 (racemic) |
| 16 (≈ 35.1 µM) | 4 (≈ 8.78 µM) | 16 (≈ 35.1 µM) | 16 (≈ 35.1 µM) | > 64 | > 64 | > 64 | > 64 | CC(=O)Nc1ccc(-n2cnn(CC(O)(Cn3cncn3)c3ccc(F)cc3F)c2=O)cc1 (racemic) |
